pEC50: −log10 of the molar value. Starred links: 1 amine or outer side, 2 acyl side, 3 side chain; linkers in the order of their positions; H or OH if unused. Positions of bridges follow the written chain, without caps; N, C: chain ends. Non-standard residues stand in square brackets, D forms with d. Residues, ends and D or L forms follow the SMILES beside them. Groups on a side chain read outwards from the residue. Triazole bridges read from a SMILES are 1,4-linked. *: point of attachment. Lys(N3) = [N-]=[N+]=NCCCC[C@H](N)C(=O)O; γGlu = O=C(O)[C@H](CCC(=O)[*:2])N[*:1]; Met(O2) = CS(=O)(=O)CC[C@H](N)C(=O)O; Palmitoyl = CCCCCCCCCCCCCCCC(=O)*; dPra = C#CC[C@@H](N)C(=O)O; Nle = CCCC[C@H](N)C(=O)O; Aib = CC(C)(N)C(=O)O
biological target: T1, human GCGR (Homo sapiens, UniProt P47871); experiment: cAMP activity assay in cells expressing human GCGR; type: cell-based; conditions: cAMP production, HitHunter cAMPXS, 1 hour; assay buffer with or without 20% human serum (not given)
T1 construct: expressed in transfected cells; grown under Blasticidin and Hygromycin selection
Description: Activity of the peptides at the Glucagon receptor (GCGR) and GLP-1 receptor (GLP1R) was measured in a cAMP activity assay.
Peptides were dissolved in 100% DMSO and serially diluted to generate 10 point titrations. The peptide solutions were then transferred into 384-well assay plates (150 nL/well). Assay ready frozen cells expressing human GLP1R or human GCGR were suspended in growth media consisting of DMEM medium (GIBCO), 10% FBS (GIBCO), 1× NEAA(GIBCO), 1× P/S (GIBCO), 10 ug/ml Blasticidin (GIBCO) and 200 μg/mL Hygromycin (GIBCO). Cells were then diluted in assay buffer consisting of PBS (GIBCO), 7.5% BSA (Perkin Elmer), 100 μM RO 20-1724 (Sigma), with or without 20% human serum (MP Biomedical). The cell suspensions (15 μL) were then added to the assay plates containing the peptide solutions (30,000 cells/well for human GCGR; 10,000 cells/well for human GLP1R). The cells were incubated for 1 hour at room temperature in the dark. Production of cAMP was determined using HitHunter™ cAMPXS kits (DiscoverX) following manufacturer protocol. The plates were incubated for overnight at room temperature in the dark. Luminescence was measured using an EnVision Multilabel plate reader (Perkin Elmer). Native GLP-1 and Glucagon (Bachem) are used as control peptides. EC50 values were calculated using uses a 4 parameter logistic fit based on the Levenberg-Marquardt algorithm.

T1 sequence (P47871 26-477): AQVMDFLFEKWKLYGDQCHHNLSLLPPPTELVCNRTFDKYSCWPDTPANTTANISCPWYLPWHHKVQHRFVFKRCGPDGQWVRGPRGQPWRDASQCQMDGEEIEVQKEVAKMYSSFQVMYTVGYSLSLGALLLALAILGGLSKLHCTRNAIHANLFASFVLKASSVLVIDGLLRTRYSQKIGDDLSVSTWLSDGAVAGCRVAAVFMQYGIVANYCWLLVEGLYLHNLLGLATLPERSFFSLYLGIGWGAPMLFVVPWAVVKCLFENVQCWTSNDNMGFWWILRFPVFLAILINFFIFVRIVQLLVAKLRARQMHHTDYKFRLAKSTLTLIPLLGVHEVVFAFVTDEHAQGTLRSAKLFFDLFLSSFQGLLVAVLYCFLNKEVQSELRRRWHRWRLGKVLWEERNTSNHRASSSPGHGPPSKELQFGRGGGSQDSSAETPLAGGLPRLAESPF

In the case of CSCC[C@@H]1NC(=O)[C@H](CC(C)C)NC(=O)[C@H](Cc2c[nH]c3ccccc23)NC(=O)[C@H](NC(=O)[C@@H](NC(=O)[C@H](Cc2ccccc2)NC(=O)[C@H](CC(=O)O)NC(=O)[C@H](CCC(N)=O)NC(=O)[C@H](C)NC(=O)[C@H](C)NC(=O)[C@H](CCCNC(=N)N)NC(=O)C(C)(C)NC(=O)[C@H](CC(=O)O)NC(=O)[C@H](CC(C)C)NC(=O)[C@H](Cc2ccc(O)cc2)NC(=O)[C@H](CCCCN)NC(=O)[C@H](CO)NC(=O)[C@H](CCCCN)NC(=O)[C@H](CC(=O)O)NC(=O)[C@H](CO)NC(=O)[C@@H](NC(=O)[C@H](Cc2ccccc2)NC(=O)[C@@H](NC(=O)CNC(=O)[C@H](CCC(N)=O)NC(=O)C(C)(C)NC(=O)[C@@H](N)Cc2c[nH]cn2)[C@@H](C)O)[C@@H](C)O)C(C)C)Cc2cn(nn2)CCCC[C@@H](C(=O)N[C@H](C(=O)N[C@@H](CCCCN)C(=O)N[C@@H](CCC(N)=O)C(=O)O)[C@@H](C)O)NC1=O [compound 11] (H-H[Aib]QGTFTSDKSKYLD[Aib]RAAQDFV[dPra]WLM[Lys(N3)]TKQ-OH; triazole 24-28; N-terminus assumed), the pEC50 was ≤ 8.30.

same assay, conditions: ratio of human GCGR EC50 to human GLP1R EC50

Going from CCCCCCCCCCCCCCCC(=O)N[C@@H](CCC(=O)N[C@@H](CCC(=O)NCCCC[C@H](NC(=O)[C@H](CC(=O)O)NC(=O)[C@H](CO)NC(=O)[C@@H](NC(=O)[C@H](Cc1ccccc1)NC(=O)[C@@H](NC(=O)CNC(=O)[C@H](CCC(N)=O)NC(=O)C(C)(C)NC(=O)[C@@H](N)Cc1c[nH]cn1)[C@@H](C)O)[C@@H](C)O)C(=O)N[C@@H](CO)C(=O)N[C@@H](CCCCN)C(=O)N[C@@H](Cc1ccc(O)cc1)C(=O)N[C@@H](CC(C)C)C(=O)N[C@@H](CC(=O)O)C(=O)NC(C)(C)C(=O)N[C@@H](CCCNC(=N)N)C(=O)N[C@@H](C)C(=O)N[C@@H](C)C(=O)N[C@@H](CCC(N)=O)C(=O)N[C@@H](CC(=O)O)C(=O)N[C@@H](Cc1ccccc1)C(=O)N[C@H](C(=O)N[C@@H]1Cc2cn(nn2)CCCC[C@@H](C(=O)N[C@H](C(N)=O)[C@@H](C)O)NC(=O)[C@H](CCCC)NC(=O)[C@H](CC(C)C)NC(=O)[C@H](Cc2c[nH]c3ccccc23)NC1=O)C(C)C)C(=O)O)C(=O)O [compound 19] to CCCCCCCCCCCCCCCC(=O)N[C@@H](CCC(=O)N[C@@H](CCC(=O)NCCCC[C@H](NC(=O)[C@H](CC(=O)O)NC(=O)[C@H](CO)NC(=O)[C@@H](NC(=O)[C@H](Cc1ccccc1)NC(=O)[C@@H](NC(=O)CNC(=O)[C@H](CCC(N)=O)NC(=O)C(C)(C)NC(=O)[C@@H](N)Cc1c[nH]cn1)[C@@H](C)O)[C@@H](C)O)C(=O)N[C@@H](CO)C(=O)N[C@@H](CCCCN)C(=O)N[C@@H](Cc1ccc(O)cc1)C(=O)N[C@@H](CC(C)C)C(=O)N[C@@H](CC(=O)O)C(=O)NC(C)(C)C(=O)N[C@@H](CCCNC(=N)N)C(=O)N[C@@H](C)C(=O)N[C@@H](C)C(=O)N[C@@H]1Cc2cn(nn2)CCCC[C@@H](C(=O)N[C@@H](Cc2c[nH]c3ccccc23)C(=O)N[C@@H](CC(C)C)C(=O)N[C@@H](CCCC)C(=O)N[C@@H](CC(=O)O)C(=O)N[C@H](C(N)=O)[C@@H](C)O)NC(=O)[C@H](C(C)C)NC(=O)[C@H](Cc2ccccc2)NC(=O)[C@H](CC(=O)O)NC1=O)C(=O)O)C(=O)O [compound 17] (H-H[Aib]QGTFTSDK([γGlu-γGlu-Palmitoyl])SKYLD[Aib]RAA[dPra]DFV[Lys(N3)]WL[Nle]DT-NH2; triazole 20-24), the “hGCGR/hGLP1R (hTone)” value rises from 0.99 to 2.25.

First: CCCCCCCCCCCCCCCC(=O)N[C@@H](CCC(=O)N[C@@H](CCC(=O)NCCCC[C@H](NC(=O)[C@H](CC(=O)O)NC(=O)[C@H](CO)NC(=O)[C@@H](NC(=O)[C@H](Cc1ccccc1)NC(=O)[C@@H](NC(=O)CNC(=O)[C@H](CCC(N)=O)NC(=O)[C@@H](CO)NC(=O)[C@@H](N)Cc1c[nH]cn1)[C@@H](C)O)[C@@H](C)O)C(=O)N[C@@H](CO)C(=O)N[C@@H](CCCCN)C(=O)N[C@@H](Cc1ccc(O)cc1)C(=O)N[C@@H](CC(C)C)C(=O)N[C@@H](CC(=O)O)C(=O)N[C@@H](C)C(=O)N[C@@H](CCCNC(=N)N)C(=O)N[C@@H](C)C(=O)N[C@@H](C)C(=O)N[C@@H]1Cc2cn(nn2)CCCC[C@@H](C(=O)N[C@@H](Cc2c[nH]c3ccccc23)C(=O)N[C@@H](CC(C)C)C(=O)N[C@@H](CC(C)C)C(=O)N[C@@H](CC(=O)O)C(=O)N[C@H](C(N)=O)[C@@H](C)O)NC(=O)[C@H](C(C)C)NC(=O)[C@H](Cc2ccccc2)NC(=O)[C@H](CC(=O)O)NC1=O)C(=O)O)C(=O)O [compound 13] (H-H[dS]QGTFTSDK([γGlu-γGlu-Palmitoyl])SKYLDARAA[dPra]DFV[Lys(N3)]WLLDT-NH2; triazole 20-24)
Second: CCCCCCCCCCCCCCCC(=O)N[C@@H](CCC(=O)N[C@@H](CCC(=O)NCCCC[C@H](NC(=O)[C@H](CC(=O)O)NC(=O)[C@H](CO)NC(=O)[C@@H](NC(=O)[C@H](Cc1ccccc1)NC(=O)[C@@H](NC(=O)CNC(=O)[C@H](CCC(N)=O)NC(=O)[C@@H](CO)NC(=O)[C@@H](N)Cc1c[nH]cn1)[C@@H](C)O)[C@@H](C)O)C(=O)N[C@@H](CO)C(=O)N[C@@H](CCCCN)C(=O)N[C@@H](Cc1ccc(O)cc1)C(=O)N[C@@H](CC(C)C)C(=O)N[C@@H](CC(=O)O)C(=O)N[C@@H](C)C(=O)N[C@@H](CCCNC(=N)N)C(=O)N[C@@H](C)C(=O)N[C@@H](C)C(=O)N[C@@H](CCC(N)=O)C(=O)N[C@@H](CC(=O)O)C(=O)N[C@@H](Cc1ccccc1)C(=O)N[C@H](C(=O)N[C@H]1CCCCn2cc(nn2)C[C@H](C(=O)N[C@H](C(N)=O)[C@@H](C)O)NC(=O)[C@H](CC(C)C)NC(=O)[C@H](CC(C)C)NC(=O)[C@H](Cc2c[nH]c3ccccc23)NC1=O)C(C)C)C(=O)O)C(=O)O [compound 24] (H-H[dS]QGTFTSDK([γGlu-γGlu-Palmitoyl])SKYLDARAAQDFV[Lys(N3)]WLL[dPra]T-NH2; triazole 24-28; N-terminus assumed)
The “hGCGR/hGLP1R (hTone)” value of the first is lower: 0.4 for the first, 0.54 for the second.

First: CCCCCCCCCCCCCCCC(=O)N[C@@H](CCC(=O)N[C@@H](CCC(=O)NCCCC[C@H](NC(=O)[C@H](CC(=O)O)NC(=O)[C@H](CO)NC(=O)[C@@H](NC(=O)[C@H](Cc1ccccc1)NC(=O)[C@@H](NC(=O)CNC(=O)[C@H](CCC(N)=O)NC(=O)C(C)(C)NC(=O)[C@@H](N)Cc1c[nH]cn1)[C@@H](C)O)[C@@H](C)O)C(=O)N[C@@H](CO)C(=O)N[C@@H](CCCCN)C(=O)N[C@@H](Cc1ccc(O)cc1)C(=O)N[C@@H](CC(C)C)C(=O)N[C@@H](CC(=O)O)C(=O)NC(C)(C)C(=O)N[C@@H](CCCNC(=N)N)C(=O)N[C@@H](C)C(=O)N[C@@H](C)C(=O)N[C@@H]1Cc2cn(nn2)CCCC[C@@H](C(=O)N[C@@H](Cc2c[nH]c3ccccc23)C(=O)N[C@@H](CC(C)C)C(=O)N[C@@H](CCS(C)(=O)=O)C(=O)N[C@@H](CC(=O)O)C(=O)N[C@H](C(=O)N[C@@H](CCCCN)C(=O)N[C@@H](CCC(N)=O)C(=O)O)[C@@H](C)O)NC(=O)[C@H](C(C)C)NC(=O)[C@H](Cc2ccccc2)NC(=O)[C@H](CC(=O)O)NC1=O)C(=O)O)C(=O)O [compound 21] (H-H[Aib]QGTFTSDK([γGlu-γGlu-Palmitoyl])SKYLD[Aib]RAA[dPra]DFV[Lys(N3)]WL[Met(O2)]DTKQ-OH; triazole 20-24)
Second: CCCCCCCCCCCCCCCC(=O)N[C@@H](CCC(=O)N[C@@H](CCC(=O)NCCCC[C@H](NC(=O)[C@H](CC(=O)O)NC(=O)[C@H](CO)NC(=O)[C@@H](NC(=O)[C@H](Cc1ccccc1)NC(=O)[C@@H](NC(=O)CNC(=O)[C@H](CCC(N)=O)NC(=O)C(C)(C)NC(=O)[C@@H](N)Cc1c[nH]cn1)[C@@H](C)O)[C@@H](C)O)C(=O)N[C@@H](CO)C(=O)N[C@@H](CCCCN)C(=O)N[C@@H](Cc1ccc(O)cc1)C(=O)N[C@@H](CC(C)C)C(=O)N[C@@H](CC(=O)O)C(=O)NC(C)(C)C(=O)N[C@@H]1Cc2cn(nn2)CCCC[C@@H](C(=O)N[C@@H](Cc2ccccc2)C(=O)N[C@H](C(=O)N[C@@H](CCC(N)=O)C(=O)N[C@@H](Cc2c[nH]c3ccccc23)C(=O)N[C@@H](CC(C)C)C(=O)N[C@@H](CCCC)C(=O)N[C@@H](CC(=O)O)C(=O)N[C@H](C(N)=O)[C@@H](C)O)C(C)C)NC(=O)[C@H](CCC(N)=O)NC(=O)[C@H](C)NC(=O)[C@H](C)NC1=O)C(=O)O)C(=O)O [compound 18] (H-H[Aib]QGTFTSDK([γGlu-γGlu-Palmitoyl])SKYLD[Aib][dPra]AAQ[Lys(N3)]FVQWL[Nle]DT-NH2; triazole 17-21)
The “hGCGR/hGLP1R (hTone)” value of the first is higher: 4.5 for the first, 1.96 for the second.

Reference: patent US20230063794A1, “STAPLED TRIAZOLE CO-AGONISTS OF THE GLUCAGON AND GLP-1 RECEPTORS” (Merck Sharp & Dohme LLC, priority 2019, published 2023)
